Results as given in ChEMBL document CHEMBL3301464, “MMV Malaria Box anti-babesial screening”.

How the values were obtained:
[1] = (§1) MMV: Anti-babesial activity assay. Parasite pRBCs at 1% parasitemia were cultivated in 100 ul with 96-well plates at 2.5% and 5% hematocrits. The parasites were cultivated in triplicate for 4 days without replacement of the medium for each concentration of the compound.; format: functional, Babesia bovis
[2] = as §1; format: functional, Babesia bigemina
[3] = as §1; format: functional, Babesia caballi
[4] = as §1; format: functional, Babesia equi

Row | SMILES | IC50 [1] [µM] | IC50 [2] [µM] | IC50 [3] [µM] | IC50 [4] [µM]
1 | O=C(Nc1ccccc1O)c1ccc(Oc2cccc(C(=O)Nc3ccccc3O)c2)cc1 | 6.45 | 2.86 | 19.4 | 4.19
2 | N=c1n(CCN2CCCCC2)c2ccccc2n1CC(O)c1cccc(Br)c1 (stereo unspecified) | 3.81 | 1 | 4.93 | 1.58
3 | O=C(NCc1ccco1)C1CCN(S(=O)(=O)c2ccc(Cl)cc2)CC1 | > 25 | 13 | 25 | 7.59
4 | COc1ccc(C(=O)Nc2ccc3nc(N4CCCCC4)cc(C)c3c2)cc1OC | 14.3 | 0.46 | 0.51 | 6.99
5 | COc1ccc(N2CCN(C(CNC(=O)C3CCCCC3)c3ccc4c(c3)OCO4)CC2)cc1 (stereo unspecified) | 24.9 | 7.67 | 7.67 | 13
6 | CCC(C)NCC(O)(c1ccc(Cl)cc1)c1ccc(Cl)cc1 (stereo unspecified) | 25 | 1.9 | 2.96 | 7.67
7 | COc1ccc(CCN2CCC(CN(C)Cc3cnn(-c4ccccc4)c3)CC2)cc1 | 0.87 | 4.29 | 2.45 | 0.62
8 | COCCNC(=O)c1ccc(OC2CCN(Cc3ccc(F)c(F)c3)CC2)c(Cl)c1 | 0.27 | 0.98 | 1 | 17.2
9 | O=C(NC1CCCC1)c1ccc(N2CCC(NCc3cccc(C(F)(F)F)c3)CC2)cc1 | 14 | 25 | 13.4 | 10
10 | CCOc1cc(Br)c(C(C)NC(=O)c2cccc(OC)c2)cc1OCC (stereo unspecified) | 10 | 25 | 13.3 | 12.4
11 | CC(C)=CCN1CCC(C(=O)Nc2ccc(-c3nc4ccccc4[nH]3)cc2)CC1 | 5.5 | 1.04 | 17 | 0.051
12 | CCN(CC)CCn1c(=N)n(CC(O)c2ccc(Cl)c(Cl)c2)c2ccccc21 (stereo unspecified) | 10.1 | 17.2 | 5.62 | 3.91
13 | CCOc1cc(Cl)c(C(C)NC(=O)c2cccc(OC)c2)cc1OCC (stereo unspecified) | 25 | 7.3 | 18.7 | 2.45
14 | O=C(CCc1ccco1)NC1CCN(CC2(c3ccc(Cl)cc3)CCC2)CC1 | 5.06 | 1.87 | > 25 | 3.39
15 | FC(F)(F)c1cccc(Nc2nc(-c3ccccc3)nc3ncccc23)c1 | 6.8 | 4.48 | 12 | 16
16 | CCN1CCN(c2cc(C)c3cc(NC(=O)c4ccc(OC)c(OC)c4)ccc3n2)CC1 | 6.69 | 7.92 | 5.93 | 0.33
17 | Cc1ccc(Cl)cc1N1CCN(CCCNC(=O)C2CCN(c3nc4ccccc4[nH]3)CC2)CC1 | 3.03 | 2.4 | 1 | 4.77
18 | COCCN(C(=O)Cc1cccs1)C(C(=O)NCc1ccc(OC)cc1)c1ccc(C(C)C)cc1 (stereo unspecified) | 25 | 13.2 | 17.2 | 5.79
19 | CCOc1cc(Cl)c(C(C)NC(=O)c2ccccc2)cc1OCC (stereo unspecified) | > 25 | 4.19 | 12.4 | 10
20 | O=C(c1ccccc1F)N(Cc1ccc(Cl)cc1)c1ccccn1 | 16.5 | 4.19 | 6.06 | 18.2
21 | O=C(Nc1ccc(CN2CCOCC2)cc1)c1ccc(-c2ccc(Br)cc2)o1 | 7.67 | 11.5 | 5.64 | 6.8
22 | CC(=O)NCCc1nc2ccccc2n1Cc1ccc(C(C)C)cc1 | 7.96 | 8.2 | 10 | 1

Row | SMILES | IC50 [1] [µM] | IC50 [2] [µM] | IC50 [3] [µM] | IC50 [4] [µM]
23 | CN(C)c1ccc(-c2nc3cc(N)ccc3[nH]2)cc1 | 0.083 | 1.04 | 7.59 | 3.61
24 | O=C(CSc1ccc2nnc(-c3cccc(F)c3)n2n1)Nc1ccc2c(c1)OCO2 | 11.9 | 20.2 | 18.2 | 12.9
25 | Cc1c(C)n(Cc2ccc(F)cc2)c2ccc(C(=O)NCc3ccco3)cc12 | 24.7 | 0.288 | 10 | 15.8
26 | CC(C)(C)C(=O)Nc1ccc(C(=O)Nc2cccc(-c3nc4ccccc4[nH]3)c2)cc1 | 0.32 | 0.08 | 2.19 | 5.19
27 | Cc1ccc(CN2CCC(C(=O)Nc3ccc(-c4cc5ccccc5[nH]4)cc3)CC2)o1 | 5.5 | 3.61 | 4.37 | 0.33
28 | Cc1cc(C)c2nc(N3CCC(C(=O)NCCCN4CCC(N5CCCCC5)CC4)CC3)sc2c1 | 2.74 | 3.91 | 4.77 | 0.64
29 | CCn1c(SCC(=O)Nc2cc(C(F)(F)F)ccc2Cl)nc2ccccc2c1=O | 25 | 3.32 | 14.8 | 15.8
30 | O=C(Nc1ccc(Cl)cc1C(=O)Nc1ccncc1)c1ccc(Cl)cc1Cl | 10 | 19.7 | 5.64 | 3.61
31 | CCOc1cccc2sc(N(Cc3cccnc3)C(=O)C3CCCCC3)nc12 | 25 | 21.6 | 0.076 | 4.77
32 | COc1ccc(C2N(C)c3ccccc3N2C)cc1 | 4.77 | 2.16 | 4.6 | 7.89
33 | CCN(CC)c1cc(C)c2cc(NC(=O)c3cccc(OC)c3)ccc2n1 | 10 | 8.99 | 9.33 | 0.46
34 | CC(C)(C)CC(C)(C)NCC(O)COc1ccc2c(c1)CCC2 (stereo unspecified) | 10 | 0.6 | 6.81 | 2.45
35 | CC(C)OCc1cc(CN2CCN(c3cccc(Cl)c3)CC2)c(O)c2ncccc12 | 0.59 | 0.92 | 0.073 | 1
36 | O=C(Nc1nc(-c2ccccn2)cs1)c1ccccc1Br | 4.6 | 1 | 1 | 5.5
37 | O=C(Nc1ccc(F)c(Cl)c1)Nc1ccc(Cl)c(Cl)c1 | 3.53 | 3.39 | 3.81 | 3.39
38 | CC(O)(c1ccc(Cl)cc1)C(CN1CCCCC1)c1ccccc1 (stereo unspecified) | 13.3 | 0.87 | 0.08 | 7.09
39 | CCCCc1ccc(NS(=O)(=O)c2cc3c4c(c2)CCN4C(=O)CC3)cc1 | 25 | 12.5 | 0.07 | 0.57
40 | COc1ccccc1N1CCN(C(CNS(=O)(=O)c2ccc(Cl)cc2)c2cccnc2)CC1 (stereo unspecified) | 0.669 | 2.16 | 13.5 | 17.2
41 | CCOc1c(Cl)cc(CNC(C)C(O)c2ccccc2)cc1OC (stereo unspecified) | 1.89 | 7.31 | 12 | 6.69
42 | CN1c2ccccc2N(C)C1c1ccc2c(c1)OCO2 | 4.93 | 0.1 | 0.36 | 10.1
43 | O=C(NCC1Cc2cccc(-c3ccncc3)c2O1)c1csc2c1CCCC2 (stereo unspecified) | 7.18 | 1 | 15.3 | 3.7
44 | C=C(C)CCC(C)N1CCC(N2CCC(C(=O)NCCc3ccccc3)CC2)CC1 (stereo unspecified) | 4.37 | 2.4 | 12.9 | 4.89
